Our source for the IC50 values is BindingDB's records for doi:10.1016/j.bioorg.2016.06.001 (Tehran University of Medical Sciences, 2016).

The structures appear in SMILES notation. pIC50: −log10 of the molar value.

What all share (conditions): pH 8
Assay [1] addresses Carboxylic ester hydrolase (Equus caballus, UniProt Q9N1N9). The experiment in a line: AChE and BChE Inhibition Assay. Here is the method: (§1) In vitro AChEI activity was performed based on the modified Ellman's methodas previously reported by our group using a 96-well plate reader (BioTek ELx808). […] Each well contained 50 uL potassium phosphate buffer (KH2PO4/K2HPO4, 0.1 M, pH 8), 25 uL prepared sample as described above, 25 uL enzyme with final concentration of 0.22 U/mL in buffer. They were preincubated for 15 min at rt, and then 125 uL DTNB (3 mM in buffer) was added. […] The IC50 values were determined graphically from inhibition curves (log inhibitor concentration vs. percent of inhibition).

The target in the next assay is Acetylcholinesterase (Electrophorus electricus, UniProt O42275). Briefly: AChE and BChE Inhibition Assay. Here is the method: as §1
Chain of Acetylcholinesterase (O42275 whole entry): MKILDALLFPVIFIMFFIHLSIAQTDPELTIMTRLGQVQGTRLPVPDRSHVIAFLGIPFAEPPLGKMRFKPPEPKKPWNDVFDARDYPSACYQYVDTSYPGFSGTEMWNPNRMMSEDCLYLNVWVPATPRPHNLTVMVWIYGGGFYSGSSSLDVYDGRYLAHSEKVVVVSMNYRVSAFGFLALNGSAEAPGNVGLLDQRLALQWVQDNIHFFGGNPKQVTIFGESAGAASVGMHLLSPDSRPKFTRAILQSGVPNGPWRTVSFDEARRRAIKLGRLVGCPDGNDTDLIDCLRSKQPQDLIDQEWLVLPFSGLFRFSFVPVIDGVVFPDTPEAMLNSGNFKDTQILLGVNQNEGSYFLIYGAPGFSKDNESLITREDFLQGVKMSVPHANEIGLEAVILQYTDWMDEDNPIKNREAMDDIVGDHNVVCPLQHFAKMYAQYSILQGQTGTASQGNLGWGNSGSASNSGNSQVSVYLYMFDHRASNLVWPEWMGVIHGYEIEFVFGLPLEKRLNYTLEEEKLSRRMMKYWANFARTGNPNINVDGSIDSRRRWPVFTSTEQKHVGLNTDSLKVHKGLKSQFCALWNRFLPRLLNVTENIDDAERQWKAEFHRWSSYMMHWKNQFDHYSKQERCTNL
A short description of assay [2]: AChE and BChE Inhibition Assay.

Chain of Carboxylic ester hydrolase (Q9N1N9 whole entry): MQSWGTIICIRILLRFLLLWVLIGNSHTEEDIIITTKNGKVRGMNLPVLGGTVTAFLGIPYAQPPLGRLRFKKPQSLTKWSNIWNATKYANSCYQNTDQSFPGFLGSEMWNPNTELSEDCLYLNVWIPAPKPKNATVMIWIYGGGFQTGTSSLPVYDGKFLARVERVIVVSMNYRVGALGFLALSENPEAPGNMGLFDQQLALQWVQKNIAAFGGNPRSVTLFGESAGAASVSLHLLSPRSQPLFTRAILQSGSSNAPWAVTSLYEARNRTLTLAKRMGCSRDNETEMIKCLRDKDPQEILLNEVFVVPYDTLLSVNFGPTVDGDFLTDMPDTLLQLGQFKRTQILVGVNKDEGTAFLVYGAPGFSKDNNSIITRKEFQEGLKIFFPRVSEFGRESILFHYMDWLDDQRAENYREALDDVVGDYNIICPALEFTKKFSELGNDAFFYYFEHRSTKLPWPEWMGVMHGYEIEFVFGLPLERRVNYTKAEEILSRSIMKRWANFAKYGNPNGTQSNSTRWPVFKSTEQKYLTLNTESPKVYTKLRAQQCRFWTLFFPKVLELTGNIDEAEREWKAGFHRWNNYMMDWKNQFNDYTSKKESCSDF

For orientation: pIC50 means the negative decadic logarithm of the IC50, by convention in mol/L. In the case of `Cc1cc(=O)oc2cc(Oc3ccc(Nc4c5c(nc6ccccc46)CCCC5)cc3)ccc12` [4-Methyl-7-(4-((1,2,3,4-tetrahydroacridin-9-yl)amino)phenoxy)-2H-chromen-2-one (8j)], the values for the pIC50 (in assay [1]; against Acetylcholinesterase) were 4.41 and 4.66, respectively.

Consider `Cc1cc(=O)oc2cc(Oc3ccc(Nc4c5c(nc6ccccc46)CCCCC5)cc3)ccc12` [4-Methyl-7-(4-((7,8,9,10-tetrahydro-6H-cyclohepta[b]quinolin-11-yl)amino)phenoxy)-2H-chromen-2-one (8o)], for which the pIC50 in assay [1] is under 4.00; against Acetylcholinesterase it was 4.19.

For the compound `Cc1cc(=O)oc2cc(Oc3ccc(Nc4c5c(nc6ccc(Cl)cc46)CCCCC5)cc3)ccc12` [7-(4-(2-Chloro-7,8,9,10-tetrahydro-6H-cyclohepta[b]quinolin-11-ylamino)phenoxy)-4-methyl-2H-chromen-2-one (8q)], the pIC50 in assay [1] was under 4.00; against Acetylcholinesterase it was 4.27.

With `O=c1ccc2ccc(Oc3ccc(Nc4c5c(nc6ccccc46)CCCC5)cc3)cc2o1` [7-(4-((1,2,3,4-Tetrahydroacridin-9-yl)amino)phenoxy)-2H-chromen-2-one (8g)], the pIC50 in assay [1] was 4.54; on Acetylcholinesterase it was 4.72.

With `O=c1ccc2ccc(Oc3ccc(Nc4c5c(nc6ccccc46)CCC5)cc3)cc2o1` [7-(4-((2,3-Dihydro-1H-cyclopenta[b]quinolin-9-yl)amino)phenoxy)-2H-chromen-2-one (8a)], the pIC50 in assay [1] is under 4.00; on Acetylcholinesterase, 4.08.

Regarding `Cc1cc(=O)oc2cc(Oc3ccc(Nc4c5c(nc6ccccc46)CCC5)cc3)ccc12` [7-(4-((2,3-Dihydro-1H-cyclopenta[b]quinolin-9-yl)amino)phenoxy)-4-methyl-2H-chromen-2-one (8d)], the pIC50 was under 4.00 in assay [1] and 4.34 against Acetylcholinesterase.

For the compound `O=c1ccc2ccc(Oc3ccc(Nc4c5c(nc6cc(Cl)ccc46)CCCCC5)cc3)cc2o1` [7-(4-((3-Chloro-7,8,9,10-tetrahydro-6H-cyclohepta[b]quinolin-11-yl)amino)phenoxy)-2H-chromen-2-one (8n)], the pIC50 (in assay [1]; on Acetylcholinesterase) was under 4.00 throughout.

For `Cc1cc(=O)oc2cc(Oc3ccc(Nc4c5c(nc6cc(Cl)ccc46)CCCCC5)cc3)ccc12` [7-(4-((3-Chloro-7,8,9,10-tetrahydro-6H-cyclohepta[b]quinolin-11-yl)amino)phenoxy)-4-methyl-2H-chromen-2-one (8p)], the pIC50 in assay [1] was under 4.00; against Acetylcholinesterase, 4.50.

Consider `O=c1ccc2ccc(Oc3ccc(Nc4c5c(nc6cc(Cl)ccc46)CCCC5)cc3)cc2o1` [7-(4-((6-Chloro-1,2,3,4-tetrahydroacridin-9-yl)amino)phenoxy)-2H-chromen-2-one (8h)], for which the pIC50 (in assay [1]; against Acetylcholinesterase) was under 4.00 throughout.

In the case of `Cc1cc(=O)oc2cc(Oc3ccc(Nc4c5c(nc6cc(Cl)ccc46)CCCC5)cc3)ccc12` [7-(4-((6-Chloro-1,2,3,4-tetrahydroacridin-9-yl)amino)phenoxy)-4-methyl-2H-chromen-2-one (8k)], the pIC50 in assay [1] was 4.51; at Acetylcholinesterase, 4.74.

On to `O=c1ccc2ccc(Oc3ccc(Nc4c5c(nc6cc(Cl)ccc46)CCC5)cc3)cc2o1` [7-(4-((6-Chloro-2,3-dihydro-1H-cyclopenta[b]quinolin-9-yl)amino)phenoxy)-2H-chromen-2-one (8b)], for which the pIC50 in assay [1] was 4.93; at Acetylcholinesterase, under 4.00.

In the case of `Cc1cc(=O)oc2cc(Oc3ccc(Nc4c5c(nc6cc(Cl)ccc46)CCC5)cc3)ccc12` [7-(4-((6-Chloro-2,3-dihydro-1H-cyclopenta[b]quinolin-9-yl)amino)phenoxy)-4-methyl-2H-chromen-2-one (8e)], the pIC50 is 5.10 in assay [2], under 4.00 in assay [1] and 4.79 against Acetylcholinesterase.

Take `O=c1ccc2ccc(Oc3ccc(Nc4c5c(nc6ccccc46)CCCCC5)cc3)cc2o1` [7-(4-((7,8,9,10-Tetrahydro-6H-cyclohepta[b]quinolin-11-yl)amino)phenoxy)-2H-chromen-2-one (8m)]: the pIC50 (in assay [1]; on Acetylcholinesterase) was under 4.00 each time.

On to `O=c1ccc2ccc(Oc3ccc(Nc4c5c(nc6ccc(Cl)cc46)CCCC5)cc3)cc2o1` [7-(4-((7-Chloro-1,2,3,4-tetrahydroacridin-9-yl)amino)phenoxy)-2H-chromen-2-one (8i)], for which the pIC50 (in assay [1]; against Acetylcholinesterase) was under 4.00 throughout.

On to `Cc1cc(=O)oc2cc(Oc3ccc(Nc4c5c(nc6ccc(Cl)cc46)CCCC5)cc3)ccc12` [7-(4-((7-Chloro-1,2,3,4-tetrahydroacridin-9-yl)amino)phenoxy)-4-methyl-2H-chromen-2-one (8l)], for which the pIC50 is under 4.00 in assay [1] and 4.51 against Acetylcholinesterase.

In the case of `O=c1ccc2ccc(Oc3ccc(Nc4c5c(nc6ccc(Cl)cc46)CCC5)cc3)cc2o1` [7-(4-((7-Chloro-2,3-dihydro-1H-cyclopenta[b]quinolin-9-yl)amino)phenoxy)-2H-chromen-2-one (8c)], the values for the pIC50 (in assay [1]; on Acetylcholinesterase) were under 4.00 and 4.41, respectively.

Consider `Cc1cc(=O)oc2cc(Oc3ccc(Nc4c5c(nc6ccc(Cl)cc46)CCC5)cc3)ccc12` [7-(4-((7-Chloro-2,3-dihydro-1H-cyclopenta[b]quinolin-9-yl)amino)phenoxy)-4-methyl-2H-chromen-2-one (8f)], for which the pIC50 was under 4.00 in assay [1] and 4.44 at Acetylcholinesterase.
